Counter-ions that a name gives are not always drawn. Like-named read-outs stand apart in the source and are kept apart here.
What was measured:
H460 cancer cells = assay: In vitro combination study with Compound 1, Cell Titer-Glo (ATP) cell viability, 72 h; assay type: cell-based; details: DNA damaging agent combined with Compound 1; 72 h;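 also: Ten-by-ten dose matrices of both drugs alongside single-agent dilutions, luminescence read 72 hours after compound addition, percent activity per well versus vehicle (DMSO) plate controls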
HCT116 cancer cells = assay: as above; assay type: cell-based; details: DNA damaging agent combined with Compound 1; 72 h;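 also: combination call from 10×10 dose matrices in duplicate, graded by synergy, with percent activity per well relative to DMSO vehicle controls on the same plate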
SW48 cancer cells = assay: as above; assay type: cell-based; details: DNA damaging agent combined with Compound 1; 72 h
CALU6 (Lung) = assay: In vitro combination study for selected compounds, additional cell lines; assay type: cell-based; details: drug combined with Compound 1
Procedure: (§1) In vitro anti-proliferative effects of selected compounds were tested in additional cell lines, including ovarian cancer (SKOV3) and pancreatic cancer (MIA-PACA-2) cell lines.

H-1650 (Lung) = assay: as above; assay type: cell-based; details: drug combined with Compound 1
Procedure: as §1

[1] = system: PHTXS-13O human primary ovarian cancer xenografts; assay: In vivo combination study, Patient Derived Xenograft; parameters: species or system mouse; details: for Result (combination with Compound 1, tumor growth): PHTXS-13O (170 mm^3) FIG. 4A
Procedure: (§2) To investigate in vivo antitumor activity of Compound 1 in combination with other agents, tests using Cell Derived Xenograft (CDX), Patient Derived Xenograft (PDX) and Syngeneic mouse tumor isograft model were conducted. Cells or Patient Derived Tumors were inoculated by one method of the following two methods (Method A and B) as shown Table 7.
(§3) Method A; Cells were maintained in either immune deficient nude mice or immune competent mice by subcutaneous inoculation of tumor cells at various concentrations into respected mice. Method B: Patient Derived Tumor s were maintained in nude mice by subcutaneous inoculation of tumor pieces (approx. 2×2×2 mm) into nude mice. Mice with tumor size of approximately 50 mm^3 (e.g., 40-75 mm^3) for syngeneic mouse studies or 200 mm^3 (e.g., 110-270 mm^3) for xenograft studies were randomly assigned to dose groups on the day (Day 0) before start date of dosing.
(§4) Compound 1 (crystalline form I) was suspended in 0.5 w/v % methylcellulose and administered orally to mice. Antibodies which administered in the experiment were described in Table 8.
(§5) Tumor size was measured by caliper and tumor volume was estimated using the equation V=(LW^2)/2, where L and W are tumor length and width, respectively and reported in cubic millimeters.
(§6) These values were compared across treatment groups to assess whether the differences in the trends over time were statistically significant. To compare pairs of treatment groups, the following mixed-effects linear regression model was fit to the data using the maximum likelihood method:
(§7) For synergy analyses, the observed differences in the log tumor values were used to calculate AUC values for each animal. In instances when an animal in a treatment group was removed from the study, the last observed tumor value was carried forward through all subsequent time points. The AUC for the control, or vehicle, group was calculated using the predicted values from the pairwise models described above. We defined a measure of synergy as follows:
(§8) where Ak and Bk are the k^th animal in the individual treatment groups and ABk is the k^th animal in combination treatment group. AUCcd is the model-predicted AUC for the control group and was treated as a constant with no variability. The standard error of the synergy score was calculated as the square root of the sum of squared standard errors across groups A, B, and AB. The degrees of freedom were estimated using the Welch-Satterthwaite equation. A hypothesis test was performed to determine if the synergy score differed from 0. P values were calculated by dividing the synergy score by its standard error and tested against a t-distribution (two-tailed) with the above-calculated degrees of freedom.
(§9) The effect was classified into four different categories. It was considered synergistic if the synergy score was less than 0 and additive if the synergy score wasn't statistically different from 0. If the synergy score was greater than zero, but the mean AUC for the combination was lower than the lowest mean AUC among the two single agent treatments, then the combination was sub-additive. If the synergy score was greater than zero, and the mean AUC for the combination was greater than the mean AUC for at least one of the single agent treatments, then the combination was antagonistic.

[2] = system: PHTXM-79Es human primary esophagus cancer xenografts; assay: as above; parameters: species or system mouse
Procedure: as §2, §3, §4, §5, §6, §7, §8, §9

[3] = system: PHTX-249Pa human primary pancreatic xenografts; assay: as above; parameters: species or system mouse; details: PHTX-249Pa (195 mm^3)
Procedure: as §2, §3, §4, §5, §6, §7, §8, §9

[4] = system: PHTXM-35Es human primary esophagus cancer xenografts; assay: as above; parameters: species or system mouse; details: PHTXM-35Es (240 mm^3); Compound 1 60 mg/kg once daily Day 1-21; drug 10 mg/kg intraperitoneally Days 1,5,9,13,17,21
Procedure: as §2, §3, §4, §5, §6, §7, §8, §9

PHTXM-90Es (Esophagus) = assay: as above; parameters: species or system mouse; details: PHTXM-90Es (185 mm^3); Compound 1 60 mg/kg once daily Day 1-21; drug 10 mg/kg intraperitoneally Days 1,5,9,13,17,21
Procedure: as §2, §3, §4, §5, §6, §7, §8, §9

PHTXM-97Pa (Pancreatic) = assay: as above; parameters: species or system mouse; details: PHTXM-97Pa (180 mm^3)
Procedure: as §2, §3, §4, §5, §6, §7, §8, §9

A549 cancer cells = assay: In vitro combination study with Compound 1, Cell Titer-Glo (ATP) cell viability, 72 h; assay type: cell-based;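 also: Ten-by-ten dose matrices of the two agents in duplicate, compounds added 16 h post-plating, activity relative to DMSO vehicle wells, call reflects synergy evaluation from luminescence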
COLO205 cancer cells = assay: as above; assay type: cell-based, human; details: DNA damaging agent combined with Compound 1; 72 h;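 also: Ten-by-ten dose matrices of both agents in duplicate plus single-agent dilutions, luminescent ATP read-out, percent activity per well relative to DMSO vehicle wells, synergy call from these matrices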
SW620 cancer cells = assay: as above; assay type: cell-based; details: DNA damaging agent combined with Compound 1; 72 h;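 also: Ten-by-ten dose matrices of both drugs in 384-well plates, luminescent ATP read-out, synergy evaluated against single-agent and DMSO vehicle controls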
[5] = system: ovarian cancer (SKOV3) cell line; assay: In vitro combination study for selected compounds, additional cell lines; assay type: cell-based; details: drug combined with Compound 1
Procedure: as §1

[6] = system: pancreatic cancer (MIA-PACA-2) cell line; assay: as above; assay type: cell-based; details: drug combined with Compound 1
Procedure: as §1

[7] = Compound 1 20 mg/kg once daily Day 1-21, drug 5 mg/kg intraperitoneally Days 1,5,9,13,17,21
[8] = Compound 1 20 mg/kg once daily Day 1-21, drug 10 mg/kg intraperitoneally Days 1,5,9,13,17,21
[9] = Compound 1 40 mg/kg once daily Day 1-21, drug 5 mg/kg intraperitoneally Days 1,5,9,13,17,21
[10] = Compound 1 40 mg/kg once daily Day 1-21, drug 10 mg/kg intraperitoneally Days 1,5,9,13,17,21

`N.N.O=C([O-])C1(C(=O)[O-])CCC1.[Pt+2]` [Carboplatin] was tested, and the “Call, anti-proliferative effect of combination with Compound 1, H460” value (“Call, anti-proliferative effect … H460” below) (H460 cancer cells) was “Synergy (0 to 0.7)”, the “Call, anti-proliferative effect of combination with Compound 1, HCT116” value (from here on “Call, anti-proliferative effect … HCT116”) (HCT116 cancer cells) was “Synergy (0 to 0.7)” and the “Call, anti-proliferative effect of combination with Compound 1, SW48” value (“Call, anti-proliferative effect … SW48” for short) (SW48 cancer cells) was “Additivity (0.7 to 1.3)”. The “In vitro combination effect with Compound 1, Lung CALU6” value (CALU6 (Lung)) was “Additive”, the “In vitro combination effect with Compound 1, Lung H-1650” value (H-1650 (Lung)) was “Additive” and the “Result (combination with Compound 1, tumor growth)” value (shortened to “Result”) ([1]; Compound 1 40 mg/kg once daily Day 1-14, drug 30 mg/kg intraperitoneally Days 1,5,9,13) was “Additive”. For the same compound, the “Result” value ([1]; Compound 1 40 mg/kg once daily Day 1-14, drug 50 mg/kg intraperitoneally Days 1,5,9,13) was “Additive”, the “Result” value ([1]; Compound 1 60 mg/kg once daily Day 1-14, drug 30 mg/kg intraperitoneally Days 1,5,9,13) was “Additive” and the “Result” value ([1]; Compound 1 60 mg/kg once daily Day 1-14, drug 50 mg/kg intraperitoneally Days 1,5,9,13) was “Additive”. The antitumor activity ([1]; combined with Compound 1, PHTXS-13O human primary ovarian cancer xenografts, FIG. 4A) was “strong antitumor activity compared to either single treatment alone”.

`CCc1c2c(nc3ccc(OC(=O)N4CCC(N5CCCCC5)CC4)cc13)-c1cc3c(c(=O)n1C2)COC(=O)[C@]3(O)CC` [Irinotecan (CPT-11), Irinotecan] was tested, and the “Result” value ([2]; PHTXM-79Es (160 mm^3) FIG. 5B, Compound 1 60 mg/kg once daily Day 1-21, drug 10 mg/kg intraperitoneally Days 1,5,9,13,17,21) was “Additive”, the antitumor activity ([2]; combined with Compound 1, PHTXM-79Es human primary esophagus cancer xenografts, FIG. 5B) was “strong antitumor activity compared to either single treatment alone” and the “Result” value [3, 7] was “Additive”. For the same compound, the “Result” value [3, 8] was “Additive”, the “Result” value [3, 9] was “Additive” and the “Result” value [3, 10] was “Additive”. For the same compound, the “Result” value [4] was “Additive”, the “Result” value (PHTXM-90Es (Esophagus)) was “Synergistic” and the “Result” value (PHTXM-97Pa (Pancreatic); [7]) was “Additive”. The “Result” value (PHTXM-97Pa (Pancreatic); [8]) was “Additive”, the “Result” value (PHTXM-97Pa (Pancreatic); [9]) was “subadditive” and the “Result” value (PHTXM-97Pa (Pancreatic); [10]) was “subadditive”.

With `CCc1c2c(nc3ccc(O)cc13)-c1cc3c(c(=O)n1C2)COC(=O)[C@]3(O)CC` [SN-38] the “Call, anti-proliferative effect of combination with Compound 1, A549” value (A549 cancer cells) was “Synergy (key: Inconclusive: Any; Additivity: 0.7 to 1.3; Synergy: 0 to 0.7; Subadditivity: 1.3 to 2; Antagonism: >2)”, the “Call, anti-proliferative effect of combination with Compound 1, COLO205” value (COLO205 cancer cells) was “Additivity (0.7 to 1.3)” and the “Call, anti-proliferative effect … H460” value (H460 cancer cells) was “Synergy (0 to 0.7)”. The “Call, anti-proliferative effect … HCT116” value (HCT116 cancer cells) was “Synergy (0 to 0.7)”, the “Call, anti-proliferative effect … SW48” value (SW48 cancer cells) was “Additivity (0.7 to 1.3)” and the “Call, anti-proliferative effect of combination with Compound 1, SW620” value (SW620 cancer cells) was “Synergy (0 to 0.7)”. For the same compound, the “In vitro combination effect with Compound 1, Lung H-1650” value (H-1650 (Lung)) was “Additive”, the “In vitro combination effect with Compound 1, Ovary SKOV3” value [5] was “Additive” and the “In vitro combination effect with Compound 1, Pancreas MIA-PACA-2” value [6] was “Additive”.

With `CC[C@@]1(O)C(=O)OCc2c1cc1n(c2=O)Cc2cc3c(CN(C)C)c(O)ccc3nc2-1` [Topotecan hydrochloride] the “Call, anti-proliferative effect of combination with Compound 1, A549” value (A549 cancer cells; DNA damaging agent combined with Compound 1, 72 h) was “Synergy (0 to 0.7)”, the “Call, anti-proliferative effect of combination with Compound 1, COLO205” value (COLO205 cancer cells) was “Synergy (0 to 0.7)” and the “Call, anti-proliferative effect … H460” value (H460 cancer cells) was “Synergy (0 to 0.7)”. For the same compound, the “Call, anti-proliferative effect … HCT116” value (HCT116 cancer cells) was “Synergy (0 to 0.7)”, the “Call, anti-proliferative effect … SW48” value (SW48 cancer cells) was “Additivity (0.7 to 1.3)” and the “Call, anti-proliferative effect of combination with Compound 1, SW620” value (SW620 cancer cells) was “Synergy (0 to 0.7)”. For the same compound, the “In vitro combination effect with Compound 1, Lung H-1650” value (H-1650 (Lung)) was “Additive”, the “In vitro combination effect with Compound 1, Ovary SKOV3” value [5] was “Additive” and the “In vitro combination effect with Compound 1, Pancreas MIA-PACA-2” value [6] was “Additive”.

Reference: US20220323443A1, “COMBINATION THERAPY FOR CANCER TREATMENT” (TAKEDA PHARMACEUTICAL COMPANY LIMITED, priority 2019, published 2022)
